Tested on: Balb/c female mice
Test: Transepidermal water loss in pups of mothers receiving SCFA in drinking water during pregnancy (TEWLmeter method)
Assay type: in vivo
Settings: 200 mM in drinking water of pregnant mothers from day 1 of pregnancy; TEWL at day 3 after birth; vs regular drinking water; FIG. 1
Protocol: • Breeding pairs were set up with 1 Balb/c male and 2 Balb/c female mice. • From day 1 of pregnancy, female mice received 200 mM sodium acetate or sodium propionate ad libitum in drinking water. These doses correspond to 0.05-0.1 and 0.05-0.08 g/mouse/day, respectively. Control female mice received regular drinking water. • Cages were monitored from day 18-24 for litters. Regular drinking water was recommenced in the mothers as soon as pups were born. 6-7 pups per group were included in the experiment. • Transepidermal water loss was measured at day 3 after birth (baseline TEWL) by the TEWLmeter method and given in g·h^−1·m^−2.

Structure (SMILES) | transepidermal water loss in offspring
CC(=O)[O-].[Na+] [acetate, sodium acetate] | significantly decreased
CCC(=O)[O-].[Na+] [propionate, sodium propionate] | significantly decreased

Source: patent US10751308B2, “Composition for preventing or reducing transepidermal water loss” (NESTEC S.A., priority 2016, dated 2020)
